Source: patent publication US7273885B2, “Inhibitors of serine proteases, particularly HCV NS3-NS4A protease” (Vertex Pharmaceuticals Incorporated, priority 2002, dated 2007)
pIC50, pKi: −log10 of the molar value. Read-outs that look alike come from different tables or passages of the source. *1 amine or outer side, *2 acyl side, *3 side chain or, on linkers, in order; H or OH if unused. Where a SMILES comes first, the peptide text is derived from it. [ ]: non-standard residue; d: D form. The star is where a group is joined. Oic = O=C(O)[C@@H]1C[C@@H]2CCCC[C@@H]2N1; NH(1S-phenylethyl) = C[C@H](N*)c1ccccc1; Isopropoxycarbonyl = CC(C)OC(=O)*; Pyrazinecarbonyl = O=C(c1cnccn1)*; X1 = CCCC(N[*:1])C(=O)C(=O)[*:2]; Chg = N[C@H](C(=O)O)C1CCCCC1; Tle = CC(C)(C)[C@H](N)C(=O)O; Dap = NC[C@H](N)C(=O)O; NHcPr = C1CC1N*; Moc = COC(=O)*

What was measured:
[1] = target: HCV NS3-NS4A protease (tNS3 with KK4A) (Hepatitis C virus genotype 1a, UniProt P27958); experiment: HCV Ki assay (HPLC microbore separation of 5AB substrate and products); type: biochemical
Protocol: HPLC Microbore Method for Separation of 5AB Substrate and Products
• Substrate: • NH2-Glu-Asp-Val-Val-(alpha)Abu-Cys-Ser-Met-Ser-Tyr-COOH
A stock solution of 20 mM 5AB (or concentration of your choice) was made in DMSO w/ 0.2M DTT. This was stored in aliquots at −20 C.
Buffer: 50 mM HEPES, pH 7.8; 20% glycerol; 100 mM NaCl
Total assay volume was 100 μL
The buffer, KK4A, DTT, and tNS3 were combined; distributed 78 μL each into wells of 96 well plate. This was incubated at 30 C for ˜5–10 min.
2.5 μL of appropriate concentration of test compound was dissolved in DMSO (DMSO only for control) and added to each well. This was incubated at room temperature for 15 min.
Initiated reaction by addition of 20 μL of 250 μM 5AB substrate (25 μM concentration is equivalent or slightly lower than the Km for 5AB).
Incubated for 20 min at 30 C.
Terminated reaction by addition of 25 μL of 10% TFA
Transferred 120 μL aliquots to HPLC vials
Separated SMSY product from substrate and KK4A by the following method:
Microbore Separation Method:
Instrumentation: Agilent 1100
• Degasser G1322A • Binary pump G1312A • Autosampler G1313A • Column thermostated chamber G1316A • Diode array detector G1315A Column:
Phenomenex Jupiter; 5 micron C18; 300 angstroms; 150×2 mm; P/O 00F-4053-B0 • Column thermostat: 40 C • Injection volume: 100 μL • Solvent A=HPLC grade water+0.1% TFA • Solvent B=HPLC grade acetonitrile+0.1% TFA
• Stop time: 17 min • Post-run time: 10 min.

[2] = system: Cells containing hepatitis C virus (HCV) replicon; experiment: HCV replicon cell assay (Taqman RT-PCR of HCV RNA); type: cell-based
Protocol: HCV Replicon Cell Assay Protocol
Cells containing hepatitis C virus (HCV) replicon were maintained in DMEM containing 10% fetal bovine serum (FBS), 0.25 mg per ml of G418, with appropriate supplements (media A).
On day 1, replicon cell monolayer was treated with a trypsin:EDTA mixture, removed, and then media A was diluted into a final concentration of 100,000 cells per ml wit. 10,000 cells in 100 ul were plated into each well of a 96-well tissue culture plate, and cultured overnight in a tissue culture incubator at 37° C.
On day 2, compounds (in 100% DMSO) were serially diluted into DMEM containing 2% FBS, 0.5% DMSO, with appropriate supplements (media B). The final concentration of DMSO was maintained at 0.5% throughout the dilution series.
Media on the replicon cell monolayer was removed, and then media B containing various concentrations of compounds was added. Media B without any compound was added to other wells as no compound controls.
Cells were incubated with compound or 0.5% DMSO in media B for 48 hours in a tissue culture incubator at 37° C. At the end of the 48-hour incubation, the media was removed, and the replicon cell monolayer was washed once with PBS and stored at −80° C. prior to RNA extraction.
Culture plates with treated replicon cell monolayers were thawed, and a fixed amount of another RNA virus, such as Bovine Viral Diarrhea Virus (BVDV) was added to cells in each well. RNA extraction reagents (such as reagents from RNeasy kits) were added to the cells immediately to avoid degradation of RNA. Total RNA was extracted according the instruction of manufacturer with modification to improve extraction efficiency and consistency. Finally, total cellular RNA, including HCV replicon RNA, was eluted and stored at −80° C. until further processing.
A Taqman real-time RT-PCR quantification assay was set up with two sets of specific primers and probe. One was for HCV and the other was for BVDV. Total RNA extractants from treated HCV replicon cells was added to the PCR reactions for quantification of both HCV and BVDV RNA in the same PCR well. Experimental failure was flagged and rejected based on the level of BVDV RNA in each well. The level of HCV RNA in each well was calculated according to a standard curve run in the same PCR plate. The percentage of inhibition or decrease of HCV RNA level due to compound treatment was calculated using the DMSO or no compound control as 0% of inhibition. The IC50 (concentration at which 50% inhibition of HCV RNA level is observed) was calculated from the titration curve of any given compound.

[3] = 50% inhibition of HCV RNA level, 48-hour incubation, HCV replicon cells, read-out: IC50

HCV NS3-NS4A protease (tNS3 with KK4A), sequence (P27958 1027-1208): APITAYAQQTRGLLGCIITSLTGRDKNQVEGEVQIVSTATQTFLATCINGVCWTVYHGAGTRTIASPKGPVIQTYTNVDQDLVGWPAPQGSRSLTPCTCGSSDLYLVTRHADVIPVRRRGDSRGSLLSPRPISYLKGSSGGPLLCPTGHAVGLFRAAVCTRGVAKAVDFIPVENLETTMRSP

Compound: CCCC(NC(=O)[C@@H]1C[C@@H]2CCCC[C@@H]2N1C(=O)[C@@H](NC(=O)[C@@H](NC(=O)c1cnccn1)C(C)C)C(C)C)C(=O)C(=O)N[C@@H](Cc1ccccc1)C(=O)O (stereo partly shown) [Compound 1a] (Pyrazinecarbonyl-VV[Oic][X1]F-OH)
- pKi [1]: > 6.30

Compound: CCCC(NC(=O)[C@@H]1C[C@@H]2CCCC[C@@H]2N1C(=O)[C@@H](NC(=O)[C@@H](NC(=O)c1cnccn1)C(C)C)C(C)C)C(=O)C(=O)NC1CC1 (stereo partly shown) [Compound 2a]
- pKi [1]: 6.00 to 6.30

Compound: CCCC(NC(=O)[C@@H]1C[C@@H]2CCCC[C@@H]2N1C(=O)[C@@H](NC(=O)[C@@H](NC(=O)c1cnccn1)C1CCCCC1)C(C)C)C(=O)C(=O)NC1CC1 (stereo partly shown) [Compound 3a]
- pIC50 ([2]; 48 h): 5.30 to 6.00
- pKi [1]: > 6.30

Compound: CCCC(NC(=O)[C@@H]1C[C@@H]2CCCC[C@@H]2N1C(=O)[C@@H](NC(=O)[C@@H](NC(=O)c1cnccn1)C1CCCCC1)C(C)(C)C)C(=O)C(=O)NC1CC1 (stereo partly shown) [Compound 4a]
- pIC50 [2, 3]: 6.00 to 6.30
- pKi [1]: > 6.30

Compound: CCCC(NC(=O)[C@@H]1C[C@@H]2CCCC[C@@H]2N1C(=O)[C@@H](NC(=O)[C@@H](NC(=O)[C@H](C)NC(=O)OC(C)C)C1CCCCC1)C(C)C)C(=O)C(=O)NC1CC1 (stereo partly shown) [Compound 5a] (Isopropoxycarbonyl-A[Chg]V[Oic][X1]-NHcPr)
- pKi [1]: > 6.30

Compound: CCCC(NC(=O)[C@@H]1C[C@@H]2CCCC[C@@H]2N1C(=O)[C@@H](NC(=O)[C@@H](NC(=O)[C@H](C)NC(=O)OC(C)C)C1CCCCC1)C(C)(C)C)C(=O)C(=O)NC1CC1 (stereo partly shown) [Compound 6a] (Isopropoxycarbonyl-A[Chg][Tle][Oic][X1]-NHcPr)
- pKi [1]: > 6.30

Compound: CCCC(NC(=O)[C@@H]1C[C@@H]2CCCC[C@@H]2N1C(=O)[C@@H](NC(=O)[C@@H](NC(=O)c1cnccn1)C1CCCCC1)C(C)(C)C)C(=O)C(=O)N[C@@H](C)c1ccccc1 (stereo partly shown) [Compound 7a]
- pKi [1]: > 6.30

Compound: CCCC(NC(=O)[C@@H]1C[C@@H]2CCCC[C@@H]2N1C(=O)[C@@H](NC(=O)[C@@H](NC(=O)C1CSC(=O)N1)C1CCCCC1)C(C)(C)C)C(=O)C(=O)N[C@@H](C)c1ccccc1 (stereo partly shown) [Compound 8a]
- pKi [1]: > 6.30

Compound: CCCC(NC(=O)[C@@H]1C[C@@H]2CCCC[C@@H]2N1C(=O)[C@@H](NC(=O)[C@@H](NC(=O)[C@H](CNC(=O)OC)NC(=O)OC)C1CCCCC1)C(C)(C)C)C(=O)C(=O)N[C@@H](C)c1ccccc1 (stereo partly drawn) [Compound 9a] (Moc-[Dap](Moc)[Chg][Tle][Oic][X1]-{NH(1S-phenylethyl)})
- pIC50 [2, 3]: > 6.30
- pKi [1]: > 6.30

Compound: CCC[C@H](NC(=O)[C@@H]1C[C@@H]2CCCC[C@@H]2N1C(=O)[C@@H](NC(=O)[C@@H](NC(=O)c1cnccn1)C1CCCCC1)C(C)(C)C)C(=O)C(=O)NC1CC1 [Compound 10a]
- pIC50 [2, 3]: 6.00 to 6.30
- pKi [1]: > 6.30

Compound: CCC[C@H](NC(=O)[C@@H]1C[C@@H]2CCCC[C@@H]2N1C(=O)[C@@H](NC(=O)[C@@H](NC(=O)c1ccc[nH]1)C1CCCCC1)C(C)(C)C)C(=O)C(=O)NC1CC1 [Compound 11a]
- pIC50 [2, 3]: > 6.30
- pKi [1]: > 6.30

Compound: CCC[C@H](NC(=O)[C@@H]1C[C@@H]2CCCC[C@@H]2N1C(=O)[C@@H](NC(=O)[C@@H](NC(=O)c1cc([N+](=O)[O-])c[nH]1)C1CCCCC1)C(C)(C)C)C(=O)C(=O)NC1CC1 [Compound 12a]
- pIC50 [2, 3]: > 6.30
- pKi [1]: > 6.30

Compound: CCC[C@H](NC(=O)[C@@H]1C[C@@H]2CCCC[C@@H]2N1C(=O)[C@@H](NC(=O)[C@@H](NC(=O)c1[nH]ncc1[N+](=O)[O-])C1CCCCC1)C(C)(C)C)C(=O)C(=O)NC1CC1 [Compound 13a]
- pIC50 [2, 3]: 6.00 to 6.30
- pKi [1]: > 6.30

Compound: CCC[C@H](NC(=O)[C@@H]1C[C@@H]2CCCC[C@@H]2N1C(=O)[C@@H](NC(=O)[C@@H](NC(=O)c1cc([N+](=O)[O-])n[nH]1)C1CCCCC1)C(C)(C)C)C(=O)C(=O)NC1CC1 [Compound 14a]
- pIC50 [2, 3]: 5.30 to 6.00
- pKi [1]: > 6.30
